{
  "source": "patent EP3360549A1",
  "about": "“SMALL MOLECULE THERAPEUTICS FOR TREATING METACHROMATIC LEUKODYSTROPHY” (Rheinische Friedrich-Wilhelms-Universität Bonn, priority 2017, dated 2018)",
  "origin": "cited, not measured here",
  "system": "sulfatides",
  "conditions": "mice, brain; reduction, along with cerebrosides and sphingomyelin",
  "data": [
    {"smiles": "CC(=O)CC(c1ccccc1)c1c(O)c2ccccc2oc1=O", "note": "(stereo not shown) [Warfarin]", "values": [
      {"measurement": "reduce the levels of sulfatides", "value": 33, "unit": "%"}
    ]}
  ]
}
